From patent publication US6288070A, “Triazolopurine derivatives, medicinal composition containing the derivatives, adenosine A3 receptor compatibilizing agent, and asthmatic remedy” (Otsuka Pharmaceutical Factory, Inc., priority 1998, dated 2001)
Like-named read-outs stand apart in the source and are kept apart here.

Legend:
[1] = biological target: T1, adenosine A1 receptor (Rattus norvegicus, UniProt P25099); test: biochemical
T1 sequence (P25099 1-326): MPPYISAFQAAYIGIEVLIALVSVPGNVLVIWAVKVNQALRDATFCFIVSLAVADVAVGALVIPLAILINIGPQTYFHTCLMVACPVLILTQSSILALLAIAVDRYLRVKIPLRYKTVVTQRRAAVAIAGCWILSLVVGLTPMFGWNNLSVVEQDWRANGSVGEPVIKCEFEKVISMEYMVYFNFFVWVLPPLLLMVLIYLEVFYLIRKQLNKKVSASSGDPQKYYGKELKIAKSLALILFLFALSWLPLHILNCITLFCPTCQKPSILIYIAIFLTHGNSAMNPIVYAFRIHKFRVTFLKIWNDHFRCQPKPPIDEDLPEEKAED

[2] = biological target: T2, adenosine A3 receptor (Homo sapiens, UniProt P0DMS8); test: biochemical; settings: [125I]AB-MECA, membrane of HEK-293 cells transformed with A3 receptor plasmid, read-out: Receptor binding capacity (IC50) Adenosine A3
T2 construct: expressed in transfected cells; host or cells: HEK-293
T2 sequence (P0DMS8 1-318): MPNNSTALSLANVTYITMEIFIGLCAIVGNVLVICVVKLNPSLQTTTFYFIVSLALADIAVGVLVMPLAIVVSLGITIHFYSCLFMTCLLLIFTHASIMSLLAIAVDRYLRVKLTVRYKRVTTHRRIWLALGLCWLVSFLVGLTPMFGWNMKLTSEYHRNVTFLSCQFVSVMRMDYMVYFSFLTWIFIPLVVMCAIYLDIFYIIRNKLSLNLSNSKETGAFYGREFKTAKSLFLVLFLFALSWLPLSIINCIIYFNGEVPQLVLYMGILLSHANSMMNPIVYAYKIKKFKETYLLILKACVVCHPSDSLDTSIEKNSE

[3] = biological target: T3, adenosine A2 receptor (Rattus norvegicus, UniProt P30543); test: Adenosine A2 receptor binding capacity
T3 construct: from tissue
T3 sequence (P30543 whole entry): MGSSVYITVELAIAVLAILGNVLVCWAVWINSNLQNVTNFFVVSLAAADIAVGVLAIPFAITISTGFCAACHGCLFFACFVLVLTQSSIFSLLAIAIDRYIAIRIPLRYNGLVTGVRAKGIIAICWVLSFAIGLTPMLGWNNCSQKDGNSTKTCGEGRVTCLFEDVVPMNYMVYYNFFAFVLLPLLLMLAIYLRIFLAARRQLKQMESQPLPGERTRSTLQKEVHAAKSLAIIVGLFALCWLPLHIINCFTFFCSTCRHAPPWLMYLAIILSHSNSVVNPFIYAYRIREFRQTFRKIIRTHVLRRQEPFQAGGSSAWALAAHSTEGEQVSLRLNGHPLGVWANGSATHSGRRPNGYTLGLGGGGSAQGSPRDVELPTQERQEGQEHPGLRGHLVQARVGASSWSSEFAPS

[4] = adenosine A2 receptor, read-out: Receptor binding capacity (IC50) Adenosine A2

Row | SMILES | IC50 [1] [nM] | IC50 [2] [nM] | IC50 [3, 4] [nM] | IC50 [3] [nM]
1 | Cc1nc2[nH]cnc2c2nc(-c3ccccc3)nn12 [Example 1, 5-methyl-8-phenyl-1H-1,2,4-triazolo[5,1-i]purine] | 101 | – | – | –
2 | COc1cc(-c2nc3c4[nH]cnc4nc(C)n3n2)cc(OC)c1OC [Example 2] | – | 96 | – | –
3 | Cc1nc2nc[nH]c2c2nc(-c3cccnc3)nn12 [Example 3] | 2600 | 95 | 3000 | –
4 | CCCCc1nc2[nH]cnc2c2nc(-c3ccc(C)cc3)nn12 [Example 5] | – | – | 184 | –
5 | CCCCc1nc2nc[nH]c2c2nc(-c3ccccc3O)nn12 [Example 6] | 178 | < 1 | 247 | –
6 | CCCCc1nc2[nH]cnc2c2nc(-c3cc(OC)c(OC)c(OC)c3)nn12 [Example 12, 5-n-butyl-8-(3,4,5-trimethoxyphenyl)-1H-1,2,4-triazolo[5,1-i]purine] | 1000 | – | – | –
7 | CCCCc1nc2[nH]cnc2c2nc(-c3cccnc3)nn12 [Example 13] | 228 | – | – | –
8 | CCCCc1nc2[nH]cnc2c2nc(-c3ccco3)nn12 [Example 15] | 42 | – | – | –
9 | CCCCc1nc2nc[nH]c2c2nc(/C=C/c3ccccc3)nn12 [Example 17] | 1300 | 1.1 | 723 | –
10 | c1ccc(-c2nc3c4nc[nH]c4nc(-c4ccccc4)n3n2)cc1 [Example 18] | 6.4 | – | – | –
11 | COc1cc(-c2nc3c4[nH]cnc4nc(-c4ccccc4)n3n2)cc(OC)c1OC [Example 19] | 93 | 1.5 | 546 | –
12 | c1ccc(-c2nc3nc[nH]c3c3nc(-c4cccnc4)nn23)cc1 [Example 20] | 21 | 7.4 | 31 | –
13 | CCCc1nc2nc[nH]c2c2nc(-c3ccccc3)nn12 [Example 23] | – | – | 115 | –
14 | CCCCCc1nc2nc[nH]c2c2nc(-c3ccccc3)nn12 [Example 34, 5-pentyl-8-phenyl-1H-1,2,4-triazolo[5,1-i]purine] | – | – | 205 | –
15 | Cc1cccc(-c2nc3nc[nH]c3c3nc(-c4ccccc4)nn23)c1 [Example 35] | – | < 1 | 111 | –
16 | CCCCCCCc1nc2nc[nH]c2c2nc(-c3ccccc3)nn12 [Example 37] | – | 9 | 3700 | –
17 | CCCCc1nc2[nH]cnc2c2nc(-c3ccc(N(C)C)cc3)nn12 [Example 42] | – | – | > 10000 | –

Row | SMILES | IC50 [1] [nM] | IC50 [2] [nM] | IC50 [3, 4] [nM] | IC50 [3] [nM]
18 | CCCCc1nc2[nH]cnc2c2nc(-c3ccc(OCCC)cc3)nn12 [Example 45] | – | – | > 10000 | –
19 | CCCCc1nc2nc[nH]c2c2nc(-c3ccc(OCc4ccccc4)cc3)nn12 [Example 49] | – | 1.7 | > 10000 | –
20 | CCCCc1nc2nc[nH]c2c2nc(-c3ccc(-c4ccccc4)cc3)nn12 [Example 50] | – | – | > 10000 | –
21 | CCCCc1nc2nc[nH]c2c2nc(-c3ccc(OC)c(OC)c3)nn12 [Example 51] | – | 1.6 | > 10000 | –
22 | CCCCc1nc2nc[nH]c2c2nc(-c3ccc(N(CC)CC)cc3)nn12 [Example 54] | – | 7.8 | > 10000 | –
23 | CCCCc1nc2nc[nH]c2c2nc(-c3ccc(OC(F)(F)F)cc3)nn12 [Example 58] | – | 5.8 | > 10000 | –
24 | CCCCc1nc2[nH]cnc2c2nc(-c3ccc(C(F)(F)F)cc3)nn12 [Example 59] | – | – | > 10000 | –
25 | CCCCc1nc2nc[nH]c2c2nc(-c3ccc(N(Cc4ccccc4)Cc4ccccc4)cc3)nn12 [Example 60] | – | 15 | > 10000 | –
26 | CCCCc1nc2nc[nH]c2c2nc(-c3ccc(NCc4ccccc4)cc3)nn12 [Example 61] | – | < 1 | 1800 | –
27 | CCCCc1nc2nc[nH]c2c2nc(-c3ccc(Oc4ccccc4)cc3)nn12 [Example 62] | – | 6.6 | > 10000 | –
28 | CCCCc1nc2nc[nH]c2c2nc(-c3ccc(NC)cc3)nn12 [Example 63] | – | 1 | 2400 | –
29 | CCCCc1nc2nc[nH]c2c2nc(-c3ccc4ccccc4c3)nn12 [Example 64] | – | < 1 | 716 | –
30 | CCCCc1nc2nc[nH]c2c2nc(-c3ccc(CP(=O)(OCC)OCC)cc3)nn12 [Example 65] | – | 3.7 | – | > 10000
31 | CCCCc1nc2nc[nH]c2c2nc(-c3ccc(SC)cc3)nn12 [Example 66] | – | – | > 10000 | –
32 | CCCCc1nc2nc[nH]c2c2nc(-c3ccc(CC)cc3)nn12 [Example 67] | – | 5.4 | 1800 | –
33 | CCCCc1nc2nc[nH]c2c2nc(-c3ccc(C(C)C)cc3)nn12 [Example 68] | – | 5.1 | > 10000 | –
34 | CCCCc1nc2[nH]cnc2c2nc(-c3ccc(C(C)(C)C)cc3)nn12 [Example 69] | – | – | > 10000 | –
